Measurements reported in ChEMBL document CHEMBL3991601, “The target landscape of clinical kinase drugs” (Science, 2017).
Calls of active or inactive are those of the source. For most assays here, no stated cut-off is given here; in the data, actives have a measured Kd and inactives only a lower limit.

Key:
[1] = molecular target: Casein kinase I isoform alpha (Homo sapiens, UniProt P48729)
[2] = molecular target: T1, AarF domain-containing protein kinase 1 (Homo sapiens, UniProt Q86TW2)
T1 sequence (Q86TW2 whole entry): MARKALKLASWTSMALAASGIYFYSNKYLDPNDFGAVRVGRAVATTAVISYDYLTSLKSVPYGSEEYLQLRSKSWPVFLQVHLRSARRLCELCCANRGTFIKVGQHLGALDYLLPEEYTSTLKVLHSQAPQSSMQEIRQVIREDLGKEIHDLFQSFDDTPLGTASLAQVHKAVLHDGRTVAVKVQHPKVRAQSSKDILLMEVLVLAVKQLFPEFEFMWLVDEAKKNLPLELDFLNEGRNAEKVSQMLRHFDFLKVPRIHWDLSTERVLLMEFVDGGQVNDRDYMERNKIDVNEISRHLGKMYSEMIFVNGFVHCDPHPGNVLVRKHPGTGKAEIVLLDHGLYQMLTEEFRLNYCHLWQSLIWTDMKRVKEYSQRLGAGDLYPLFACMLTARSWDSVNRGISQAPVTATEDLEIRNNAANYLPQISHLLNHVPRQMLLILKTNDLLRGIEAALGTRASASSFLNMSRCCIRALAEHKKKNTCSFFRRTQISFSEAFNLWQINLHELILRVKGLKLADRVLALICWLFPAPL

Ephrin type-B receptor 6 = molecular target: T2, Ephrin type-B receptor 6 (Homo sapiens, UniProt O15197)
T2 sequence (O15197 whole entry): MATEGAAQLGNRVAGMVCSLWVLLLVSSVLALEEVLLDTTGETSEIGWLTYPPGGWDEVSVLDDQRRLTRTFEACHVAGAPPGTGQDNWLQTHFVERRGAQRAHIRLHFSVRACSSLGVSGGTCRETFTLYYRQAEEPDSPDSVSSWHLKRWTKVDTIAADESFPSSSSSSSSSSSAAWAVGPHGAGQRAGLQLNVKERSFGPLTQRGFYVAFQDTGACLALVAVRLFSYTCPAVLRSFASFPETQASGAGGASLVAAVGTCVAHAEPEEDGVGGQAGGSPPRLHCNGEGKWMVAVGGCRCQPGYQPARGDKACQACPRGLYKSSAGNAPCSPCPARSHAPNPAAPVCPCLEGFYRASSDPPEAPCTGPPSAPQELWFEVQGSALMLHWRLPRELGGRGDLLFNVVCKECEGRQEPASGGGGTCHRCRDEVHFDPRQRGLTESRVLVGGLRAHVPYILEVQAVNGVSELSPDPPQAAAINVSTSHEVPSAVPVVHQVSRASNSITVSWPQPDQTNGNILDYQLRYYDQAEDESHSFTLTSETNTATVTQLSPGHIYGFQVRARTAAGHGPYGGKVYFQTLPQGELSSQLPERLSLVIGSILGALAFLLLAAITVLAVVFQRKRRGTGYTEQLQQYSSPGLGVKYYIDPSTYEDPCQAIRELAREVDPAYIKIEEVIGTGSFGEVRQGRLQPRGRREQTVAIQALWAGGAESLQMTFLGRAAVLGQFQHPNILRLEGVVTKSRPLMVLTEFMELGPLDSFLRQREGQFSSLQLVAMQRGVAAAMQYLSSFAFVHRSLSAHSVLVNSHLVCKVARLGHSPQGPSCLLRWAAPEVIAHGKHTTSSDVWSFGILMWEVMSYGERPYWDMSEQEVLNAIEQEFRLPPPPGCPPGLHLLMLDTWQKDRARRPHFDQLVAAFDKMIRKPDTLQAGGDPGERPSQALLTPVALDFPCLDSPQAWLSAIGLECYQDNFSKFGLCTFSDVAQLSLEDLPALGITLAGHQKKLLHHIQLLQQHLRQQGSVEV

[3] = molecular target: Serine/threonine-protein kinase N2 (Homo sapiens, UniProt Q16513)
[4] = molecular target: T3, Dual specificity mitogen-activated protein kinase kinase 3 (Homo sapiens, UniProt P46734)
T3 sequence (P46734 whole entry): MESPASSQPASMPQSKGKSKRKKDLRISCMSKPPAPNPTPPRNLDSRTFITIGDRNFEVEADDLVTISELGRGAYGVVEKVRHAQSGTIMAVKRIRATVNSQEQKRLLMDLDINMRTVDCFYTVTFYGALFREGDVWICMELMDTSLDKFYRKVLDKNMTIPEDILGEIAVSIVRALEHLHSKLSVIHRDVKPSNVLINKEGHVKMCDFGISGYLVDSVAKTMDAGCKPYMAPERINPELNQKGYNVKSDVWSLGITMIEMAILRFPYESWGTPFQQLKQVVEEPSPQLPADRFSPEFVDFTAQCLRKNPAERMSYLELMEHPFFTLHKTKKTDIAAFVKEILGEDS

[5] = molecular target: T4, Serine/threonine-protein kinase D3 (Homo sapiens, UniProt O94806)
T4 sequence (O94806 whole entry): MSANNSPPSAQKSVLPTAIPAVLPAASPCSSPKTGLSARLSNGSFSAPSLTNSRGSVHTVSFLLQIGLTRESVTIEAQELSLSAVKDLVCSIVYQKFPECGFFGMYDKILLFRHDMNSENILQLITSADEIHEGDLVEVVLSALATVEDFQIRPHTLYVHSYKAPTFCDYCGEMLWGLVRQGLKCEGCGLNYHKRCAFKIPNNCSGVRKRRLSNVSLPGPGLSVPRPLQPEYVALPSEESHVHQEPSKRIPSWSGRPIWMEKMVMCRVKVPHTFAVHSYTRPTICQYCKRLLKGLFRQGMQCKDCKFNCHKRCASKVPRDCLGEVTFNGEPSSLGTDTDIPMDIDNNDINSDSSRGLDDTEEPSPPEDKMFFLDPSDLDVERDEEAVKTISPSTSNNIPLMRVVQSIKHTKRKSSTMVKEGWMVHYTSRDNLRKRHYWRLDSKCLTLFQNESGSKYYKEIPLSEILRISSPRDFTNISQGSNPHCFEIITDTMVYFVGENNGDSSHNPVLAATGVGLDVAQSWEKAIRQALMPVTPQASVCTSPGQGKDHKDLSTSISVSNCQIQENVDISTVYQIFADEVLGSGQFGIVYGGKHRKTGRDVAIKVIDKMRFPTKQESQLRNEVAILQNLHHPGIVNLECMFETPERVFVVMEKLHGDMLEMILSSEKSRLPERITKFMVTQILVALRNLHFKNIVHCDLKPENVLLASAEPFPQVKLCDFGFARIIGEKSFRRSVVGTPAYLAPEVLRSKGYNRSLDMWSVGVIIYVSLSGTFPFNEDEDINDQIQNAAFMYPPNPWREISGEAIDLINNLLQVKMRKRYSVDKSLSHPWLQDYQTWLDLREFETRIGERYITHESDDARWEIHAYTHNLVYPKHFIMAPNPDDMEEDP

Measured: Kd

Sequence of Serine/threonine-protein kinase N2 (Q16513 whole entry): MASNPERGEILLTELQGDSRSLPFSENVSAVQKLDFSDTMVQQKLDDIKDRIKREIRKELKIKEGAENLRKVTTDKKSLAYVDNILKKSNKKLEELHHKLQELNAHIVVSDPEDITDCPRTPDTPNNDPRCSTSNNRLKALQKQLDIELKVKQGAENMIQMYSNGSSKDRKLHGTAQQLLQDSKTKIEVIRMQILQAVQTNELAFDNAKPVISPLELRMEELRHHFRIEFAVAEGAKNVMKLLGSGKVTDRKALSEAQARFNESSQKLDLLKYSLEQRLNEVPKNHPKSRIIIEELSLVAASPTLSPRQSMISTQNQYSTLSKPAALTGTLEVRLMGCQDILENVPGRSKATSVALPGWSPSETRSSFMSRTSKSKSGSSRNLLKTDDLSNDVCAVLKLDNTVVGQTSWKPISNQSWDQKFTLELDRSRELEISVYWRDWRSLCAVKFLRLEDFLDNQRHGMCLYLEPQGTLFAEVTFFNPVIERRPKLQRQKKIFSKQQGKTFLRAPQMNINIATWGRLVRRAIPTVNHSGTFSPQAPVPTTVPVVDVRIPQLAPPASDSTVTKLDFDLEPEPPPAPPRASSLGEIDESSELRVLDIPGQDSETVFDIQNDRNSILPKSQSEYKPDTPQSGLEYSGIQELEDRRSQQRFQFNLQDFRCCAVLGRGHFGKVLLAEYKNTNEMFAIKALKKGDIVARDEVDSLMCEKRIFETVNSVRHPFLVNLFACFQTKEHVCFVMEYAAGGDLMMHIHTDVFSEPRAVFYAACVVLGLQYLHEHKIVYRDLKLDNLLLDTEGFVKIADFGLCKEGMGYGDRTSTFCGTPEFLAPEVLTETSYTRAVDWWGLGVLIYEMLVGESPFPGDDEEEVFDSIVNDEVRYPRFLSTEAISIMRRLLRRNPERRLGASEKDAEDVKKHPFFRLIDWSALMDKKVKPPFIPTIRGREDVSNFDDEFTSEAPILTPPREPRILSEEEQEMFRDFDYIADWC
Sequence of Casein kinase I isoform alpha (P48729 whole entry, the tested form may be a part, canonical isoform): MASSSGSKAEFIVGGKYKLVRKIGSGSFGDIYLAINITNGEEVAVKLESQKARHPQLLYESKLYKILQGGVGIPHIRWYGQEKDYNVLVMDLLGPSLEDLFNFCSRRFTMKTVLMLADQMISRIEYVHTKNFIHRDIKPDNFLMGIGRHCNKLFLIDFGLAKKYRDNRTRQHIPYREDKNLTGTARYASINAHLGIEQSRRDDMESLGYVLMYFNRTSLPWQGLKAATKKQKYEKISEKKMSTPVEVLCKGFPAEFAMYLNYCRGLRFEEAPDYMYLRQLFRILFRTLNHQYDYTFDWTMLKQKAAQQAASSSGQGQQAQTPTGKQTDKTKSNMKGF

C=CC(=O)N1CCC(Oc2cc3c(Nc4ccc(Cl)c(Cl)c4F)ncnc3cc2OC)CC1 [POZIOTINIB]
inactive: [1] > 30 µM | [2] > 30 µM | Ephrin type-B receptor 6 > 30 µM | [3] > 30 µM | [4] > 30 µM | [5] > 30 µM
